From article PMC9103758 (International Journal of Molecular Sciences, 2022) come the findings set out here.

One assay concerns the target T1, ANO1 (Homo sapiens, UniProt Q5XXA6, DEL476-501).
T1 construct: expressed in transfected cells; host or cells: Fisher rat thyroid (FRT) cells; The YFP assay uses FRT-ANO1-YFP cells, which also carry the halide sensor
T1 sequence (Q5XXA6 with tags, fused parts or gaps isoform Q5XXA6-5 DEL539-564): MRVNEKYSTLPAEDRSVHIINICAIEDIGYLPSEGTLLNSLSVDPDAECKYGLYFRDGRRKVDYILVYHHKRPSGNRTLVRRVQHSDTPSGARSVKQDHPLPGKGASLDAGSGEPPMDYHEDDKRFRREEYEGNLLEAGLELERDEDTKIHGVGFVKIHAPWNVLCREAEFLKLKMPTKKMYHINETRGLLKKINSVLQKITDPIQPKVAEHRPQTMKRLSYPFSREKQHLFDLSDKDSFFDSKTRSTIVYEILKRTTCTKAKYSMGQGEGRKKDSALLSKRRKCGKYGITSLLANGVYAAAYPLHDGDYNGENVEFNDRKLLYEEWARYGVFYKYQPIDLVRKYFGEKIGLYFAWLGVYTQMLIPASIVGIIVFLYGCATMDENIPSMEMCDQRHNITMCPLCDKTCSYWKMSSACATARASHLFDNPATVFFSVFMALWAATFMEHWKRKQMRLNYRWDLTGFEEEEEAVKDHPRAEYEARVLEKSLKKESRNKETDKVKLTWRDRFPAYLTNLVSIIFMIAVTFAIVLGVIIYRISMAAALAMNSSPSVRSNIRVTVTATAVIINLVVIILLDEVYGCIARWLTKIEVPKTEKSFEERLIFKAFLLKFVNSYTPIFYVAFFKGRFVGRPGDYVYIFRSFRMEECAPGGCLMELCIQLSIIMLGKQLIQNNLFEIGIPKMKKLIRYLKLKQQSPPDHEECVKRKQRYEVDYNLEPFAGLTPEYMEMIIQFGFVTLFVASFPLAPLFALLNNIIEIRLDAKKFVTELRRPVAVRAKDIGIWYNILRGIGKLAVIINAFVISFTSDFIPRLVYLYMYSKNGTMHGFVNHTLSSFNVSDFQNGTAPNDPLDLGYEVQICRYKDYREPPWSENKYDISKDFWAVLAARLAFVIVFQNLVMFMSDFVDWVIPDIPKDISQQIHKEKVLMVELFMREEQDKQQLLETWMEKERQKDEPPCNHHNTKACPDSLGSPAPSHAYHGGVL
Briefly: YFP fluorescence quenching assay for ANO1 activity in FRT-ANO1 cells. In kind it is cell-based. To be noted: ATP 100 μM, n = 4. The procedure:
Figure 2 Inhibitory effects of VI-101, VI-201 and VI-301 on VRAC and ANO1. (A–C) Representative YFP fluorescence traces for VRAC activity. LN215 cells were treated with the indicated concentrations of VI-101, VI-201 and VI-301 with hypotonic solution for 5 min. (D) Dose-response curve of VRAC inhibition (mean ± S.E., n = 4). (E–G) Representative YFP fluorescence traces for ANO1 activity. […]. (H) Dose-response curve of ANO1 inhibition (mean ± S.E., n = 4).
Human ANO1(abc) expressing Fisher rat thyroid (FRT) cells, ANO2 expressing FRT cells, and human CFTR expressing FRT cells were cultured as described in a previous study. LN215 cells were stably transfected with the halide sensor YFP-F46L/H148Q/I152 and NIH-3T3 cells cultured in DMEM were supplemented with 10% FBS, 2 mM L-glutamine, 100 units/mL penicillin, and 100 μg/mL streptomycin. HEK293T cells were stably transfected with the human Kv11.1 (hERG) and cultured in DMEM supplemented with 10% FBS, 2 mM L-glutamine, 100 units/mL penicillin, and 100 μg/mL streptomycin. PC3, HT29, and HeLa cells were stably transfected with the halide sensor YFP-F46L/H148Q/I152 and cultured in RPMI 1640 supplemented with 10% FBS, 2 mM L-glutamine, 100 units/mL penicillin, and 100 μg/mL streptomycin. […]

For assay [1], the target named is T2, VRAC (Homo sapiens, UniProt Q8IWT6).
T2 sequence (Q8IWT6 1-810): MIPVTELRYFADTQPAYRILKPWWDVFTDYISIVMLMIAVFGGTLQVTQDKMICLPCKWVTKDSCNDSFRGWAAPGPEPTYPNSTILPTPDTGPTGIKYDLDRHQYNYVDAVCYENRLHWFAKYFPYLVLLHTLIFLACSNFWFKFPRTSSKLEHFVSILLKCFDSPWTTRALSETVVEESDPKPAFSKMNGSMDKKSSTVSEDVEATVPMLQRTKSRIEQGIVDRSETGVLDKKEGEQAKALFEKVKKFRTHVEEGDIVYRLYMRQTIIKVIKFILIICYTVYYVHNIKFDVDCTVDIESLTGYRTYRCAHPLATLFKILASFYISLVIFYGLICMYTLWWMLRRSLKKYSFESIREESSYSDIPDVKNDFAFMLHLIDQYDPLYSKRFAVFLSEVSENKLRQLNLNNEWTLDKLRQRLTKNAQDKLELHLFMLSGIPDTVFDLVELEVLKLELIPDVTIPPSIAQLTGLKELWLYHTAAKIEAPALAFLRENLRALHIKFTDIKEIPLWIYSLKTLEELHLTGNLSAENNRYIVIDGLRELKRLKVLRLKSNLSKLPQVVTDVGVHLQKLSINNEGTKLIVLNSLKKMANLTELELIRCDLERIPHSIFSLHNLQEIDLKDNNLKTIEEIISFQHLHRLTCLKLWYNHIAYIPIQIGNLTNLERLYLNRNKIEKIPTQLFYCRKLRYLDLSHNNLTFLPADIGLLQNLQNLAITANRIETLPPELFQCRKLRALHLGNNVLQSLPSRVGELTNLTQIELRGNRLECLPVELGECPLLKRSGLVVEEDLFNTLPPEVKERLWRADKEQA
Briefly: cell-based. To be noted: VRAC IC50, YFP fluorescence quenching, LN215 cells, hypotonic solution 5 min, n = 4.

Another assay addresses T3, human CFTR (Homo sapiens, UniProt P13569).
T3 construct: expressed in transfected cells; host or cells: Fisher rat thyroid (FRT) cells
Briefly: Apical membrane current of CFTR in FRT cells expressing human CFTR. In kind it is cell-based. To be noted: 20 μM. An excerpt:
[…]. (C) Summary of dose-response (mean ± S.E., n = 5). […]. (F) Summary of dose−response (mean ± S.E., n = 6).
Snapwell inserts containing ANO1(abc) or CFTR-expressing FRT cells were mounted in Ussing chambers (Physiological Instruments, San Diego, CA). The basolateral hemichamber was filled with buffer solution (in mM): 120 NaCl, 5 KCl, 1 MgCl2, 1 CaCl2, 10 D-glucose, 2.5 HEPES, and 25 NaHCO3 (pH 7.4). The apical hemichamber was filled with buffer solution (in mM): 60 NaCl, 60 Na-gluconate, 5 KCl, 1 MgCl2, 1 CaCl2, 10 D-glucose, 2.5 HEPES, and 25 NaHCO3 (pH 7.4). FRT cells were bathed for a 10 min stabilization period and gassed with 5% CO2 and 95% O2 at 37 °C. The apical membrane current was recorded with an EVC4000 Multi-Channel V/I Clamp (World Precision Instruments, Sarasota, FL, USA) and a PowerLab 4/35 (AD Instruments, Castle Hill, Australia).

For assay [2], the target named is T2, VRAC. As to conditions: read-out: VRAC IC50; YFP fluorescence quenching, LN215 cells, hypotonic solution 5 min, n = 4.

Values joined by “and” are separate entries in the source; they are usually repeats but may differ in a detail not shown here. Identical values can stand only once. Like-named read-outs stand apart in the source and are kept apart here.

T3 sequence (P13569 whole entry): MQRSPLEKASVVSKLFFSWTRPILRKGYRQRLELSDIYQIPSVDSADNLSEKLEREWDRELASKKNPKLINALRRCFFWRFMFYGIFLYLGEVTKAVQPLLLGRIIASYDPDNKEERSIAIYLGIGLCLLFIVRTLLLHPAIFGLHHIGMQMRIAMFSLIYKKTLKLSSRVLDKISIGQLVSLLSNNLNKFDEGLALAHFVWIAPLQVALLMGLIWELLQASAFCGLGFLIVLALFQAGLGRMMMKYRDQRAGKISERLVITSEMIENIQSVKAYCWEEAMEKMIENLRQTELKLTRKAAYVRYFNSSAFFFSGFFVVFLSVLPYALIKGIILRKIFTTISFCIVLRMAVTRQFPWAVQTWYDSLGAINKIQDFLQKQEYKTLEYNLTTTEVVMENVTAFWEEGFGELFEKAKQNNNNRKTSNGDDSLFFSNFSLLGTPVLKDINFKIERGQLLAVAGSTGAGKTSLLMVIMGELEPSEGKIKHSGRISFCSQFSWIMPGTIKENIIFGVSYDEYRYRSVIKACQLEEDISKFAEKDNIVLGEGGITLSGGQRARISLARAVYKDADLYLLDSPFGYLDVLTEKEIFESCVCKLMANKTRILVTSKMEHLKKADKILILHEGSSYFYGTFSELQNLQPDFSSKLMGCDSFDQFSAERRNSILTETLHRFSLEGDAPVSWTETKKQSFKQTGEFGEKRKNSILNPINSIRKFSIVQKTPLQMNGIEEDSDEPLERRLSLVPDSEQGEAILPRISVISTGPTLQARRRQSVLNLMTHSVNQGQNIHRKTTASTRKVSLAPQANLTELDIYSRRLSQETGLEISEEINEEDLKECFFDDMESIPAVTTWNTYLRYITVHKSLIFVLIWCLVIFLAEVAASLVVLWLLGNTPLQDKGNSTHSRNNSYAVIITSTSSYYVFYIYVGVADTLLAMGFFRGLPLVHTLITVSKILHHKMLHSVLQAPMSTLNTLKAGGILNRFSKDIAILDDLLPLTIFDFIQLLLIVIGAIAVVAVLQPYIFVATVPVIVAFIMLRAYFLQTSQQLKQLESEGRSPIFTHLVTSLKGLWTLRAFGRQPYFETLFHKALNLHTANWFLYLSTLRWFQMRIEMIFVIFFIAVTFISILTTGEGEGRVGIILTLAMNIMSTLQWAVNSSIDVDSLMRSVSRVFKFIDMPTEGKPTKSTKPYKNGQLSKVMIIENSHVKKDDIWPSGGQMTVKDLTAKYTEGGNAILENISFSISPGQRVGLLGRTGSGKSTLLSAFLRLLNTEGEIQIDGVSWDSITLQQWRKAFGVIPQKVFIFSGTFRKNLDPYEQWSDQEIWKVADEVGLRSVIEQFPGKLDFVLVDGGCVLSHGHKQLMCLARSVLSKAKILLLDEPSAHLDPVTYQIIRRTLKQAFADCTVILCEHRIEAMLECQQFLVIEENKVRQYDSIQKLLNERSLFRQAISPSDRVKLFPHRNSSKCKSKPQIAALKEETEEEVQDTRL

As to `O=c1oc2ccccc2c(O)c1C(c1ccc(Cl)c([N+](=O)[O-])c1)c1c(O)c2ccccc2oc1=O` [VI-102], the IC50 turned out to be 3 µM at ANO1 and 0.8 µM on VRAC [1].

For the compound `O=c1oc2ccccc2c(O)c1C(c1cc2c(cc1[N+](=O)[O-])OCO2)c1c(O)c2ccccc2oc1=O` [VI-114], the figures for the IC50 on ANO1 and at VRAC [1] were 20.3 µM and 10.6 µM, respectively.

As to `O=c1oc2ccccc2c(O)c1C(c1cccc([N+](=O)[O-])c1)c1c(O)c2ccccc2oc1=O` [VI-105], the figures for the half-inhibitory concentration (IC50) at ANO1 and at VRAC [1] were 3.8 µM and 4.9 µM, respectively.

Take `CC(C)Oc1ccc(C(c2c(O)c3ccccc3oc2=O)c2c(O)c3ccccc3oc2=O)cc1` [VI-112]: the values for the IC50 on ANO1 and at VRAC [1] were 0.8 µM and 1.4 µM, respectively.

As to `O=c1oc2ccccc2c(O)c1C(c1ccc(O)c(O)c1)c1c(O)c2ccccc2oc1=O` [VI-115], the half-maximal inhibitory concentration (IC50) against ANO1 is 61.6 µM; on VRAC [1], 47.9 µM.

With `O=c1oc2ccccc2c(O)c1C(c1ccc2c(c1)OCO2)c1c(O)c2ccccc2oc1=O` [VI-113], the IC50 on ANO1 amounted to 3.9 µM; against VRAC [1], 1.9 µM.

For the compound `O=c1oc2ccccc2c(O)c1C(c1ccccc1Cl)c1c(O)c2ccccc2oc1=O` [VI-109], the half-maximal inhibitory concentration (IC50) on ANO1 turned out to be 2 µM; on VRAC [1] it was 0.9 µM.

Take `O=C(O)c1ccc(/C=C2\SC(=S)N(c3cccc(C(F)(F)F)c3)C2=O)cc1` [CFTRinh−172]: the “block of CFTR” value on human CFTR was “completely blocked”.

Consider `CCOc1cc(C(c2c(O)c3ccccc3oc2=O)c2c(O)c3ccccc3oc2=O)ccc1O` [VI-117], for which the results for the 50% inhibitory concentration (IC50) at ANO1 and against VRAC [1] were 14.2 µM and 6.8 µM, respectively.

Take `O=c1oc2ccccc2c(O)c1C(c1cc([N+](=O)[O-])ccc1Cl)c1c(O)c2ccccc2oc1=O` [VI-101]: the values for the IC50 on ANO1 and on VRAC [1] were 3.2 µM and 3.3 µM, respectively.

Turning to `CCOc1ccc(C(c2c(O)c3ccccc3oc2=O)c2c(O)c3ccccc3oc2=O)cc1OC` [VI-119], the figures for the IC50 on ANO1 and against VRAC [1] were 4.9 µM and 12 µM, respectively.

Regarding `O=c1oc2ccccc2c(O)c1C(c1cc([N+](=O)[O-])c(Cl)cc1Cl)c1c(O)c2ccccc2oc1=O` [VI-103], the figures for the IC50 against ANO1 and on VRAC [1] were 3.2 µM and 3.3 µM, respectively.

For `O=c1oc2ccccc2c(O)c1C(c1ccncc1)c1c(O)c2ccccc2oc1=O` [VI-108], the 50% inhibitory concentration (IC50) is 34.7 µM against ANO1 and 17 µM against VRAC [1].

With `O=c1oc2ccccc2c(O)c1C(c1ccccc1)c1c(O)c2ccccc2oc1=O` [VI-107], the values for the 50% inhibitory concentration (IC50) at ANO1 and at VRAC [2] were 95.2 µM and 103 µM, respectively.

In the case of `COc1ccc(C(c2c(O)c3ccccc3oc2=O)c2c(O)c3ccccc3oc2=O)cc1OC` [VI-118], the concentration for half-maximal inhibition (IC50) was 14.2 µM against ANO1 and 4 µM at VRAC [1].

As for `O=c1oc2ccccc2c(O)c1C(c1ccccc1F)c1c(O)c2ccccc2oc1=O` [VI-110], the IC50 was 4.8 µM at ANO1; 0.58 µM and 0.6 µM against VRAC [1].

Consider `O=c1oc2ccccc2c(O)c1C(c1cc([N+](=O)[O-])cc([N+](=O)[O-])c1Cl)c1c(O)c2ccccc2oc1=O` [VI-104], for which the half-maximal inhibitory concentration (IC50) against ANO1 was 37.9 µM; at VRAC [1] it was 30 µM.

Consider `CCN(CC)c1ccc(C(c2c(O)c3ccccc3oc2=O)c2c(O)c3ccccc3oc2=O)cc1` [VI-111], for which the IC50 against ANO1 was found to be 3.2 µM; against VRAC [1], 2.9 µM.

For `COc1cc(OC)cc(C(c2c(O)c3ccccc3oc2=O)c2c(O)c3ccccc3oc2=O)c1` [VI-120], the concentration for half-maximal inhibition (IC50) at ANO1 was found to be 3.9 µM; against VRAC [1], 9.3 µM.

Regarding `CN(C)c1ccc(C(c2c(O)c3ccccc3oc2=O)c2c(O)c3ccccc3oc2=O)cc1[N+](=O)[O-]` [VI-106], the IC50 against ANO1 came out at 3.6 µM; against VRAC [1], 1.3 µM.

The term IC50 denotes the concentration at which inhibition is half-maximal.
